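Dose response: 5 concentrations. Exposure: 48 h. Format: 96-well plates. Endpoint: linear interpolation; highest concentration if not reached. GI50: concentration for 50% inhibition of growth. The concentration for full growth arrest is given as TGI.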
Legend:
Experiment in all cases: growth of human tumour cells (NCI), 48 h
786-0 renal = test system: 786-0 renal
A498 renal = test system: A498 renal
A549 NSCLC = test system: A549 NSCLC
ACHN renal = test system: ACHN renal
BT-549 breast = test system: BT-549 breast
CAKI-1 renal = test system: CAKI-1 renal
CCRF-CEM leukemia = test system: CCRF-CEM leukemia
COLO 205 colon = test system: COLO 205 colon
DU-145 prostate = test system: DU-145 prostate
EKVX NSCLC = test system: EKVX NSCLC
HCC-2998 colon = test system: HCC-2998 colon
HCT-116 colon = test system: HCT-116 colon
HCT-15 colon = test system: HCT-15 colon
HOP-62 NSCLC = test system: HOP-62 NSCLC
HOP-92 NSCLC = test system: HOP-92 NSCLC
HS 578T breast = test system: HS 578T breast
HT29 colon = test system: HT29 colon
IGROV1 ovarian = test system: IGROV1 ovarian
K-562 leukemia = test system: K-562 leukemia
KM12 colon = test system: KM12 colon
LOX IMVI melanoma = test system: LOX IMVI melanoma
MCF7 breast = test system: MCF7 breast
MDA-MB-231 breast = test system: MDA-MB-231 breast
MDA-MB-435 = test system: MDA-MB-435
MOLT-4 leukemia = test system: MOLT-4 leukemia
NCI-H226 lung = test system: NCI-H226 lung
NCI-H23 lung = test system: NCI-H23 lung
NCI-H460 lung = test system: NCI-H460 lung
NCI-H522 lung = test system: NCI-H522 lung
NCI/ADR-RES ovarian = test system: NCI/ADR-RES ovarian
OVCAR-3 ovarian = test system: OVCAR-3 ovarian
OVCAR-4 ovarian = test system: OVCAR-4 ovarian
OVCAR-5 ovarian = test system: OVCAR-5 ovarian
OVCAR-8 ovarian = test system: OVCAR-8 ovarian
PC-3 prostate = test system: PC-3 prostate
RPMI-8226 leukemia = test system: RPMI-8226 leukemia
RXF 393 renal = test system: RXF 393 renal
SF-268 CNS = test system: SF-268 CNS
SF-295 CNS = test system: SF-295 CNS
SF-539 CNS = test system: SF-539 CNS
SK-MEL-2 melanoma = test system: SK-MEL-2 melanoma
SK-MEL-28 melanoma = test system: SK-MEL-28 melanoma
SK-MEL-5 melanoma = test system: SK-MEL-5 melanoma
SK-OV-3 ovarian = test system: SK-OV-3 ovarian
SN12C renal = test system: SN12C renal
SNB-19 CNS = test system: SNB-19 CNS
SW-620 colon = test system: SW-620 colon
T-47D breast = test system: T-47D breast
TK-10 renal = test system: TK-10 renal
U251 CNS = test system: U251 CNS
UACC-257 melanoma = test system: UACC-257 melanoma
UACC-62 melanoma = test system: UACC-62 melanoma
UO-31 renal = test system: UO-31 renal

For `C/C(=N\O)c1cccc(Nc2cc(-n3ccnn3)c3ccccc3n2)c1`, the GI50 (786-0 renal) was 18.3 µM, the TGI (786-0 renal) was 51.5 µM and the GI50 (A498 renal) was 15.2 µM. For the same compound, the TGI (A498 renal) was 38.3 µM, the GI50 (A549 NSCLC) was 16.9 µM and the TGI (A549 NSCLC) was 43.2 µM. The GI50 (ACHN renal) was 15 µM, the TGI (ACHN renal) was 34 µM and the GI50 (BT-549 breast) was 18.9 µM. The TGI (BT-549 breast) was 53.9 µM, the GI50 (CAKI-1 renal) was 21.3 µM and the TGI (CAKI-1 renal) was 70.6 µM. For the same compound, the GI50 (CCRF-CEM leukemia) was 11.7 µM, the TGI (CCRF-CEM leukemia) was 31.3 µM and the GI50 (COLO 205 colon) was 22.2 µM. For the same compound, the TGI (COLO 205 colon) was 59 µM, the GI50 (DU-145 prostate) was 17.5 µM and the TGI (DU-145 prostate) was 37.2 µM. For the same compound, the GI50 (EKVX NSCLC) was 19 µM, the TGI (EKVX NSCLC) was 76.1 µM and the GI50 (HCC-2998 colon) was 20.5 µM. It also gave a TGI (HCC-2998 colon) of 56.5 µM, a GI50 (HCT-116 colon) of 14.1 µM and a TGI (HCT-116 colon) of 27.1 µM. It also gave a GI50 (HCT-15 colon) of 13.5 µM, a TGI (HCT-15 colon) of 27.4 µM and a GI50 (HOP-62 NSCLC) of 15.2 µM. It also gave a TGI (HOP-62 NSCLC) of 30.7 µM, a GI50 (HOP-92 NSCLC) of 13.9 µM and a TGI (HOP-92 NSCLC) of 38.2 µM. The GI50 (HS 578T breast) was 16.4 µM, the TGI (HS 578T breast) was 87.8 µM and the GI50 (HT29 colon) was 2.17 µM. For the same compound, the TGI (HT29 colon) was 82.5 µM, the GI50 (IGROV1 ovarian) was 12.6 µM and the TGI (IGROV1 ovarian) was 27.7 µM. It also gave a GI50 (K-562 leukemia) of 14.9 µM, a TGI (K-562 leukemia) of 36.5 µM and a GI50 (KM12 colon) of 15.1 µM. It also gave a TGI (KM12 colon) of 33.3 µM, a GI50 (LOX IMVI melanoma) of 15.4 µM and a TGI (LOX IMVI melanoma) of 30.4 µM. For the same compound, the GI50 (MCF7 breast) was > 100 µM, the TGI (MCF7 breast) was > 100 µM and the GI50 (MDA-MB-231 breast) was 10.2 µM. For the same compound, the TGI (MDA-MB-231 breast) was 25.9 µM, the GI50 (MDA-MB-435) was 15.4 µM and the TGI (MDA-MB-435) was 34.2 µM. It also gave a GI50 (MOLT-4 leukemia) of 11.6 µM, a TGI (MOLT-4 leukemia) of 28.2 µM and a GI50 (NCI-H226 lung) of 0.388 µM. For the same compound, the TGI (NCI-H226 lung) was 9.35 µM, the GI50 (NCI-H23 lung) was 21.3 µM and the TGI (NCI-H23 lung) was 48.6 µM. For the same compound, the GI50 (NCI-H460 lung) was 48.9 µM, the TGI (NCI-H460 lung) was > 100 µM and the GI50 (NCI-H522 lung) was 13.2 µM. The TGI (NCI-H522 lung) was 28.9 µM, the GI50 (NCI/ADR-RES ovarian) was 20.8 µM and the TGI (NCI/ADR-RES ovarian) was > 100 µM. The GI50 (OVCAR-3 ovarian) was 20.2 µM, the TGI (OVCAR-3 ovarian) was 55.8 µM and the GI50 (OVCAR-4 ovarian) was 0.25 µM. For the same compound, the TGI (OVCAR-4 ovarian) was 27.8 µM, the GI50 (OVCAR-5 ovarian) was 24.4 µM and the TGI (OVCAR-5 ovarian) was > 100 µM. For the same compound, the GI50 (OVCAR-8 ovarian) was 17.5 µM, the TGI (OVCAR-8 ovarian) was 41 µM and the GI50 (PC-3 prostate) was 15.6 µM. For the same compound, the TGI (PC-3 prostate) was 38 µM, the GI50 (RPMI-8226 leukemia) was 12.5 µM and the TGI (RPMI-8226 leukemia) was 32 µM. For the same compound, the GI50 (RXF 393 renal) was 13.6 µM, the TGI (RXF 393 renal) was 39.8 µM and the GI50 (SF-268 CNS) was > 100 µM. For the same compound, the TGI (SF-268 CNS) was > 100 µM, the GI50 (SF-295 CNS) was 18.5 µM and the TGI (SF-295 CNS) was 47.8 µM. It also gave a GI50 (SF-539 CNS) of 19 µM, a TGI (SF-539 CNS) of 44 µM and a GI50 (SK-MEL-2 melanoma) of 15.3 µM. For the same compound, the TGI (SK-MEL-2 melanoma) was 29.5 µM, the GI50 (SK-MEL-28 melanoma) was 0.444 µM and the TGI (SK-MEL-28 melanoma) was 30.2 µM. For the same compound, the GI50 (SK-MEL-5 melanoma) was 13.4 µM, the TGI (SK-MEL-5 melanoma) was 26.2 µM and the GI50 (SK-OV-3 ovarian) was 30.6 µM. The TGI (SK-OV-3 ovarian) was > 100 µM, the GI50 (SN12C renal) was 15.4 µM and the TGI (SN12C renal) was 34 µM. For the same compound, the GI50 (SNB-19 CNS) was 45.6 µM, the TGI (SNB-19 CNS) was > 100 µM and the GI50 (SW-620 colon) was 21.1 µM. The TGI (SW-620 colon) was 50.6 µM, the GI50 (T-47D breast) was 14.9 µM and the TGI (T-47D breast) was 64.9 µM. The GI50 (TK-10 renal) was 16.9 µM, the TGI (TK-10 renal) was 46.3 µM and the GI50 (U251 CNS) was 19.9 µM. For the same compound, the TGI (U251 CNS) was 62.2 µM, the GI50 (UACC-257 melanoma) was 12.9 µM and the TGI (UACC-257 melanoma) was 27.9 µM. For the same compound, the GI50 (UACC-62 melanoma) was 12.8 µM, the TGI (UACC-62 melanoma) was 25.4 µM and the GI50 (UO-31 renal) was 16.2 µM. It also gave a TGI (UO-31 renal) of 37.5 µM.
